Key:
[1] = tested on: Arabidopsis WT (Col-0) seedlings; assay type: in vivo, Arabidopsis thaliana
[2] = tested on: bik1/pbl1 mutant seedlings; experiment: Root growth assay, bik1/pbl1 mutant; assay type: in vivo, Arabidopsis thaliana; details: bik1/pbl1, 1 µM
Excerpt: The Arabidopsis thaliana accession Columbia-0 (Col-0) was used as wild type (WT). T-DNA insertion mutants of mik2-1 (SALK_061769), mik2-2 (SALK_046987), mik2-like (SALK_112341), and rlk7-3 (SALK_120595) were obtained from the Nottingham Arabidopsis Stock Centre (NASC). The fls2 (SALK_141277), bak1-4, bik1-1/pbl1-1, bak1-5/serk4-1, rbohd mutants, and the transgenic line expressing p35S::GFP have been reported previously[19],[62],[63]. The hae/hsl2 mutant was kindly provided by Dr. Reidunn B. Aalen (University of Oslo, Norway), the pepr1-2/pepr2-2 (pepr1,2) mutant by Dr. Zhi Qi (Inner Mongolia University, China), the scoop12 mutant by Dr. Sébastien Aubourg (INRA, France), a transgenic line expressing p35S::Aequorin by Dr. Marc Knight (Durham University, UK), transgenic line expressing pMYB51::GUS by Dr. Frederick M. Ausubel (Harvard Medical School, USA). […]
Cold stratified seeds were surface-sterilized with 70% (v/v) ethanol for 5 min and were sown on ½MS plates with or without peptides at indicated concentrations. Ten-day-old seedlings grown on plates vertically in a growth chamber were photographed, and the root lengths of seedlings were measured using Image J (http://rsb.info.nih.gov/ij/).

Arabidopsis WT seedlings = experiment: ROS assay (luminol), WT seedlings; assay type: in vivo, Arabidopsis thaliana; details: for ROS production, total luminescence (Fig. 2h): WT seedlings; for ROS production, total luminescence (Fig. 3f): WT
Method: (§1) ROS burst was determined by a luminol-based assay. […] Then, ddH2O was replaced by 200 µL of reaction solution containing 50 µM of luminol, and 10 µg/mL of horseradish peroxidase (Sigma-Aldrich) supplemented with or without 100 nM or 1 μM peptide. Luminescence was measured immediately after adding the solution with a luminometer (Glomax 20/20n, Promega) with a one-second interval for 15 min. The total values of ROS production were indicated as means of the relative light units (RLUs).

mik2 mutant seedlings = experiment: ROS assay (luminol), mik2 mutants; assay type: in vivo, Arabidopsis thaliana
Method: as §1

[3] = tested on: MPK3, MPK4 and MPK6 phosphorylation, mik2-1 seedlings; experiment: MAPK assay (α-pERK1/2 immunoblot), mik2-1; assay type: in vivo, Arabidopsis thaliana; design: dose or concentration left out as unconfirmed; details: mik2-1, α-pERK1/2 immunoblot
MIK2-BAK1 association = experiment: Co-immunoprecipitation MIK2-BAK1; assay type: cell-based, Arabidopsis thaliana; details: co-IP
Method: For co-IP assays in protoplasts, protoplasts were co-transfected with pHBT-35S::MIK2-HA and pHBT-35S::BAK1-FALG or pHBT-35S::SERK4-FLAG at 50 μg DNA for 500 μL protoplasts at the density of 2 × 10^5/mL for each sample and were incubated for 12 h. After treatment with 1 µM SCOOP peptides for 15 min, samples were collected by centrifugation at 200 × g for 2 min and lysed in 300 μL IP buffer (20 mM Tris-HCl, pH 7.5, 100 mM NaCl, 1 mM EDTA, 2 mM DTT, 10% [v/v] Glycerol, 0.5% [v/v] Triton X-100 and protease inhibitor cocktail from Sigma) by vortexing. After centrifugation at 10,000 × g for 10 min at 4 °C, 30 μL of supernatant was collected for input controls. The remaining supernatant was pre-incubated with protein-G-agarose beads at 4 °C for 1 h with gentle shaking at […] on a rocker. IP was carried out with α-FLAG agarose for 3 h at 4 °C. Beads were collected by 500 × g centrifugation for 2 min and washed three times with washing buffer (20 mM Tris-HCl, pH 7.5, 100 mM NaCl, 1 mM EDTA, 0.1% [v/v] Triton X-100) and once with 50 mM Tris-HCl, pH 7.5. Immunoprecipitated proteins and input proteins were analyzed by immunoblotting with α-HA (1:3000; Roche, Cat # 12013819001) or α-FLAG antibodies (1:3000; Sigma-Aldrich, Cat # A8592).
For co-IP assays in transgenic seedlings, leaves of 4-week-old pMIK2::MIK2-GFP transgenic plants were hand-inoculated with 1 μM SCOOP10^B or SCOOP12 and were treated for 30 min, followed by total protein isolation with extraction buffer (50 mM Tris-HCl, pH 7.5, 150 mM NaCl, 1% [v/v] NP-40 and 1:200 protease inhibitor cocktail from Sigma). Co-IP was carried out the same as for co-IP with protoplasts except that GFP-Trap agarose beads (Chromotek) were used instead. Immunoprecipitated proteins and input proteins were analyzed by immunoblotting with α-GFP (1:3500; Roche, Cat # 11814460001) or α-BAK1 antibodies (1:2000)[64].

BIK1 = BIK1 phosphorylation assay; assay type: cell-based, Arabidopsis thaliana; details: protoplasts expressing BIK1-HA, 1 μM, 15 min, mobility shift
Method: WT protoplasts were transfected with pHBT-35S::BIK1-HA for 12 h followed by treatment with 1 μM SCOOP peptides for 15 min.

Question: Which results are given for “PNGDIFTGPSGSGHGGGR [SCOOP10B, synthesized SCOOP peptide corresponding to the SxS motif]”?
Answer: root growth retardation, concentration series, WT ([1]; 1 to 100 nM SCOOP10^B): more pronounced with the increased concentrations of SCOOP10^B from 1 to 100 nM; concentration at which still active ([1]; in vivo): 1 nM; root growth inhibition ([1]; in vivo): inhibited root growth to various degrees, with SCOOP10^B and 13 being the most active; root growth inhibition in bik1/pbl1 [2]: significantly compromised in the bik1/pbl1 mutant; potency in triggering PTI responses (Arabidopsis WT seedlings; Ca^2+, ROS, MAPK, compared with other SCOOPs): more potent activities than others in triggering PTI responses; ROS production, total luminescence (Fig. 2h) (Arabidopsis WT seedlings; repeat 1): 9151950; ROS production, total luminescence (Fig. 2h) (Arabidopsis WT seedlings; repeat 2): 10580582; ROS production, total luminescence (Fig. 2h) (Arabidopsis WT seedlings; repeat 3): 7374543; ROS production, total luminescence (Fig. 3f) (Arabidopsis WT seedlings; repeat 1): 36200000; ROS production, total luminescence (Fig. 3f) (Arabidopsis WT seedlings; repeat 2): 29800000; ROS production, total luminescence (Fig. 3f) (Arabidopsis WT seedlings; repeat 3): 21300000; ROS production, total luminescence (Fig. 3f) (mik2 mutant seedlings; mik2-1, repeat 1): 113000; ROS production, total luminescence (Fig. 3f) (mik2 mutant seedlings; mik2-1, repeat 2): 107000; ROS production, total luminescence (Fig. 3f) (mik2 mutant seedlings; mik2-1, repeat 3): 114000; ROS production, total luminescence (Fig. 3f) (mik2 mutant seedlings; mik2-2, repeat 1): 119000; ROS production, total luminescence (Fig. 3f) (mik2 mutant seedlings; mik2-2, repeat 2): 155000; ROS production, total luminescence (Fig. 3f) (mik2 mutant seedlings; mik2-2, repeat 3): 128000; ROS production in mik2 (mik2 mutant seedlings; mik2 mutants, 100 nM SCOOPs or 1 µM FocSCOOPL): abolished in mik2 mutants; MAPK activation in mik2 [3]: abolished in mik2 mutants; MIK2-BAK1 association (MIK2-BAK1 association; pMIK2::MIK2-GFP/mik2 leaves, 1 μM, 30 min): stimulated upon the treatment; MIK2-BAK1 association in protoplasts (MIK2-BAK1 association; protoplasts, MIK2-HA and BAK1-FLAG, 15 min): also observed in protoplasts; BIK1 phosphorylation (BIK1): led to the phosphorylation of BIK1

— article PMC8448819, “The Arabidopsis MIK2 receptor elicits immunity by sensing a conserved signature from phytocytokines and microbes” (Nature Communications, 2021)
